Data reported in patent US20110053773A1, “METHODS OF IMPROVING NUTRITIONAL VALUE OF PLANTS” (UNIVERSITY OF TENNESSEE RESEARCH FOUNDATION, priority 2009, published 2011).

Legend:
kale 'Red Russian' = experiment: Visual injury of kale after insecticide, fungicide, PGRs, safeners (Example 4)
Method: (§1) Greenhouse and laboratory studies were conducted to ascertain the tolerance and nutritional quality differences following postemergence applications of the insecticide chlorpyrifos, the fungicide chlorothalonil, the PGRs mepiquat-chloride and paclobutrazol, and the safeners napthalic anhydride and isoxadifen-ethyl on kale ‘Red Russian’ and basil ‘Genovese’. Visual injury was rated based on general phytotoxicity, chlorosis, and visual stunting and each measurement was based on a percent scale from 0 to 100 where 0 equals no visual response and 100 equals complete plant death. Kale and basil were both harvested approximately 4 weeks after treatments and plants were pooled over replicates for content analysis of crude protein, crude amino acid content, acid detergent fiber, neutral detergent fiber, total fatty acids, and/or key mineral content (including Na, Ca, P, Mg, K, Fe, Mn, Zn, and Cu). In addition, the amounts of key individual amino acids (aspartic acid, threonine, glutamic acid, proline, glycine, cysteine, valine, leucine, isoleucine, methionine, and lysine) and composite classifications of fatty acid (saturated fatty acids, monounsaturated fatty acids, polyunsaturated fatty acids) were also analyzed from these sub-samples for kale (Tables 10-14).

basil ‘Genovese’ = experiment: Yield, fresh weight of basil after insecticide, fungicide, PGRs and safeners (Example 4, Table 10); type: in vivo; conditions: DA-A, check 31.8
Method: as §1

kale ‘Red Russian’ = experiment: Yield, fresh weight of kale after insecticide, fungicide and PGRs (Example 4, Table 12); type: in vivo; conditions: 28 DA-A, Untreated Check 106.9
Method: as §1

basil 'Genovese' [1] = experiment: Content analysis of basil: protein, minerals (Example 4, Tables 10-11); type: in vivo; conditions: 28 DA-A
Procedure, shortened: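 Plants received postemergence sprays of one insecticide, one fungicide, two PGRs or two safeners in the greenhouse. About 4 weeks later they were harvested, and replicates were pooled for laboratory content analysis. Injury was rated visually on a 0–100% scale.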

basil 'Genovese' [2] = experiment: Visual injury of basil after insecticide, fungicide, PGRs, safeners (Example 4)
Method: as §1

[3] = 7 DA-A, rates g ai/ha: chlropyrifos 1120, chlorothalonil 2630, paclobutrazol 3.23, mepiquat-chloride 12.3, + NIS 0.25 % v/v
[4] = 7 DA-A, rates g ai/ha: chlropyrifos 3370, chlorothalonil 7900, paclobutrazol 9.7, mepiquat-chloride 37, + NIS 0.25 % v/v
[5] = 14 DA-A, rates g ai/ha: chlropyrifos 1120, chlorothalonil 2630, paclobutrazol 3.23, mepiquat-chloride 12.3, + NIS 0.25 % v/v
[6] = 14 DA-A, rates g ai/ha: chlropyrifos 3370, chlorothalonil 7900, paclobutrazol 9.7, mepiquat-chloride 37, + NIS 0.25 % v/v
[7] = 28 DA-A, rates g ai/ha: chlropyrifos 1120, chlorothalonil 2630, paclobutrazol 3.23, mepiquat-chloride 12.3, + NIS 0.25 % v/v
[8] = 28 DA-A, rates g ai/ha: chlropyrifos 3370, chlorothalonil 7900, paclobutrazol 9.7, mepiquat-chloride 37, + NIS 0.25 % v/v
[9] = rates g ai/ha: chlropyrifos 1120, chlorothalonil 2630, paclobutrazol 3.23, mepiquat-chloride 12.3, Isoxadifen 8, Napthalic anhydride 264, + NIS 0.25 % v/v
[10] = rates g ai/ha: chlroprifos 3370, chlorothalonil 7900, paclobutrazol 9.7, mepiquat-chloride 37, Isoxadifen 16, Napthalic anhydride 527, + NIS 0.25 % v/v
[11] = 7 DA-A, rates g ai/ha: chlropyrifos 1120, chlorothalonil 2630, paclobutrazol 3.23, mepiquat-chloride 12.3, Isoxadifen 8, Napthalic anhydride 264, + NIS 0.25 % v/v
[12] = 7 DA-A, rates g ai/ha: chlropyrifos 3370, chlorothalonil 7900, paclobutrazol 9.7, mepiquat-chloride 37, Isoxadifen 16, Napthalic anhydride 527, + NIS 0.25 % v/v
[13] = 14 DA-A, rates g ai/ha: chlropyrifos 1120, chlorothalonil 2630, paclobutrazol 3.23, mepiquat-chloride 12.3, Isoxadifen 8, Napthalic anhydride 264, + NIS 0.25 % v/v

CC(C)(C)[C@@H](O)[C@@H](Cc1ccc(Cl)cc1)n1cncn1 (racemic) [paclobutrazol]
Phytotoxicity Chlorosis (kale 'Red Russian'; [3]): 1%
Phytotoxicity General (kale 'Red Russian'; [3]): 10%
Phytotoxicity Stunting (kale 'Red Russian'; [3]): 6%
Phytotoxicity Chlorosis (kale 'Red Russian'; [4]): 0%
Phytotoxicity General (kale 'Red Russian'; [4]): 9%
Phytotoxicity Stunting (kale 'Red Russian'; [4]): 11%
Phytotoxicity Chlorosis (kale 'Red Russian'; [5]): 10%
Phytotoxicity General (kale 'Red Russian'; [5]): 3%
Phytotoxicity Stunting (kale 'Red Russian'; [5]): 19%
Phytotoxicity Chlorosis (kale 'Red Russian'; [6]): 16%
Phytotoxicity General (kale 'Red Russian'; [6]): 6%
Phytotoxicity Stunting (kale 'Red Russian'; [6]): 28%
Phytotoxicity Chlorosis (kale 'Red Russian'; [7]): 3%
Phytotoxicity General (kale 'Red Russian'; [7]): 3%
Phytotoxicity Stunting (kale 'Red Russian'; [7]): 21%
Phytotoxicity Chlorosis (kale 'Red Russian'; [8]): 0%
Phytotoxicity General (kale 'Red Russian'; [8]): 4%
Phytotoxicity Stunting (kale 'Red Russian'; [8]): 19%
Yield Fresh weight (basil ‘Genovese’; [9]): 22.4 grams
Yield Fresh weight (basil ‘Genovese’; rates g ai/ha: chlropyrifos 3370, chlorothalonil 7900, paclobutrazol 9.7, mepiquat-chloride 37, Isoxadifen 16, Napthalic anhydride 527, + NIS 0.25 % v/v): 24.4 grams
Yield Fresh weight (kale ‘Red Russian’; rates g ai/ha: chlropyrifos 1120, chlorothalonil 2630, paclobutrazol 3.23, mepiquat-chloride 12.3, + NIS 0.25 % v/v): 107.2 grams
Yield Fresh weight (kale ‘Red Russian’; rates g ai/ha: chlropyrifos 3370, chlorothalonil 7900, paclobutrazol 9.7, mepiquat-chloride 37, + NIS 0.25 % v/v): 108.3 grams
ADF, Percent Increase Over the Untreated Check (on a % dry matter basis) (basil 'Genovese' [1]; [10]): −12 % check
Calcium, Percent Increase Over the Untreated Check (on a % dry matter basis) (basil 'Genovese' [1]; [10]): −18 % check
Copper, Percent Increase Over the Untreated Check (on a % dry matter basis) (basil 'Genovese' [1]; [10]): −25 % check
Iron, Percent Increase Over the Untreated Check (on a % dry matter basis) (basil 'Genovese' [1]; [10]): 4 % check
Magnesium, Percent Increase Over the Untreated Check (on a % dry matter basis) (basil 'Genovese' [1]; [10]): −9 % check
Manganese, Percent Increase Over the Untreated Check (on a % dry matter basis) (basil 'Genovese' [1]; [10]): −12 % check
NDF, Percent Increase Over the Untreated Check (on a % dry matter basis) (basil 'Genovese' [1]; [10]): −8 % check
Phosphorous, Percent Increase Over the Untreated Check (on a % dry matter basis) (basil 'Genovese' [1]; [10]): 0 % check
Potassium, Percent Increase Over the Untreated Check (on a % dry matter basis) (basil 'Genovese' [1]; [10]): −5 % check
Protein, Percent Increase Over the Untreated Check (on a % dry matter basis) (basil 'Genovese' [1]; [10]): −9 % check
Sodium, Percent Increase Over the Untreated Check (on a % dry matter basis) (basil 'Genovese' [1]; [10]): −17 % check
Soluble protein, Percent Increase Over the Untreated Check (on a % dry matter basis) (basil 'Genovese' [1]; [10]): 12 % check
Zinc, Percent Increase Over the Untreated Check (on a % dry matter basis) (basil 'Genovese' [1]; [10]): −8 % check
ADF, Percent Increase Over the Untreated Check (on a % dry matter basis) (basil 'Genovese' [1]; [9]): 7 % check
Calcium, Percent Increase Over the Untreated Check (on a % dry matter basis) (basil 'Genovese' [1]; [9]): −2 % check
Copper, Percent Increase Over the Untreated Check (on a % dry matter basis) (basil 'Genovese' [1]; [9]): 8 % check
Iron, Percent Increase Over the Untreated Check (on a % dry matter basis) (basil 'Genovese' [1]; [9]): 63 % check
Magnesium, Percent Increase Over the Untreated Check (on a % dry matter basis) (basil 'Genovese' [1]; [9]): −8 % check
Manganese, Percent Increase Over the Untreated Check (on a % dry matter basis) (basil 'Genovese' [1]; [9]): 26 % check
NDF, Percent Increase Over the Untreated Check (on a % dry matter basis) (basil 'Genovese' [1]; [9]): 7 % check
Phosphorous, Percent Increase Over the Untreated Check (on a % dry matter basis) (basil 'Genovese' [1]; [9]): 2 % check
Potassium, Percent Increase Over the Untreated Check (on a % dry matter basis) (basil 'Genovese' [1]; [9]): −1 % check
Protein, Percent Increase Over the Untreated Check (on a % dry matter basis) (basil 'Genovese' [1]; [9]): 6 % check
Sodium, Percent Increase Over the Untreated Check (on a % dry matter basis) (basil 'Genovese' [1]; [9]): −25 % check
Soluble protein, Percent Increase Over the Untreated Check (on a % dry matter basis) (basil 'Genovese' [1]; [9]): 50 % check
Zinc, Percent Increase Over the Untreated Check (on a % dry matter basis) (basil 'Genovese' [1]; [9]): 28 % check
Phytotoxicity Chlorosis (basil 'Genovese' [2]; [11]): 8%
Phytotoxicity General (basil 'Genovese' [2]; [11]): 3%
Phytotoxicity Stunting (basil 'Genovese' [2]; [11]): 3%
Phytotoxicity Chlorosis (basil 'Genovese' [2]; [12]): 5%
Phytotoxicity General (basil 'Genovese' [2]; [12]): 3%
Phytotoxicity Stunting (basil 'Genovese' [2]; [12]): 2%
Phytotoxicity Chlorosis (basil 'Genovese' [2]; [13]): 5%
Phytotoxicity General (basil 'Genovese' [2]; [13]): 0%
Phytotoxicity Stunting (basil 'Genovese' [2]; [13]): 7%
Phytotoxicity Chlorosis (basil 'Genovese' [2]; 14 DA-A, rates g ai/ha: chlropyrifos 3370, chlorothalonil 7900, paclobutrazol 9.7, mepiquat-chloride 37, Isoxadifen 16, Napthalic anhydride 527, + NIS 0.25 % v/v): 7%
